- melting point: 63 to 65 °C
SMILES: O=C(O)C/C(C(=O)O)=C(\CCCCCCCCCCCCCCCCOS(=O)(=O)O)C(=O)O [1-Z, (Z)-3,4-dicarboxy-20-sulfooxy-3-eicosenoic acid]

Reference: patent US20110301370A1, “METHOD FOR PREPARING OREGANIC ACID” (CONSEJO SUPERIOR DE INVESTIGACIONES CIENTÍFICAS, priority 2008, published 2011)
